Data reported in patent US20020106707A1, “Compositions and methods for detecting and quantifying COX-2 activity and anandamide metabolites” (priority 2000, published 2002).
Where two headings read alike, the source gives them in different places.

Experiments:
[1] = rat
COX-2 = biological target: T1, COX-2 (Mus musculus, UniProt Q05769); conditions: 3 μM inhibitor; RAW264.7 cells activated with LPS (1 μg/mL) and IFN-γ (10 units/mL), AEA 20 μM
T1 sequence (Q05769 18-604): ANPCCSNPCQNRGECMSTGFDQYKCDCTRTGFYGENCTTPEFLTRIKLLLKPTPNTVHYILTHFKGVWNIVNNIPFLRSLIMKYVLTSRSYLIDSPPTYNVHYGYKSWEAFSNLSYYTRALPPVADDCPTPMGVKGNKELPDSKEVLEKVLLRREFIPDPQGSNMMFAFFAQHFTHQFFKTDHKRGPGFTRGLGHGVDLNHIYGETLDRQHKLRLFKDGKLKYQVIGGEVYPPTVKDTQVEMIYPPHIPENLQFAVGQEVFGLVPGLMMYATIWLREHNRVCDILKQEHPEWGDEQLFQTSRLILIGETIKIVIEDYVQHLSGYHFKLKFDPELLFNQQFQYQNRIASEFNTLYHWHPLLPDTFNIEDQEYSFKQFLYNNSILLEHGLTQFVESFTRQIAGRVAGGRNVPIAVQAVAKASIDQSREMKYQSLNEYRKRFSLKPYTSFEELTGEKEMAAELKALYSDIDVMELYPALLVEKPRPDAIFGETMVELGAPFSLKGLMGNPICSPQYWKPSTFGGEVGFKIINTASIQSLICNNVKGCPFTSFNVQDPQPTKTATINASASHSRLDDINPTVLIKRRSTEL

CCCCCC(=O)CCC1C(O)CC(=O)C1C/C=C\CCCC(=O)NCCO (centres unmarked) [13,14-dihydro-15-keto-PGE2-EA]
detection at 2 hours post-dosing ([1]; in vivo, iv, 2 mg/kg): routinely detected

CCCCC[C@H](O)/C=C/[C@H]1[C@H](O)CC(=O)[C@@H]1C/C=C\CCCC(=O)NCCO [PGE2-EA, prostaglandin E2 ethanolamide]
apparent volume of distribution ([1]; 2 mg/kg PGE2-EA IV): 300 to 400 mL
detection at 2 hours post-dosing ([1]; 2 mg/kg PGE2-EA IV, 2 hours post-dosing): routinely detected
calculated plasma half-life ([1]; 2 mg/kg PGE2-EA IV, n=3): 380 ± 50 s

COc1ccc2c(c1)c(CC(=O)NCCc1ccccc1)c(C)n2C(=O)c1ccc(Cl)cc1 [indomethacin phenethylamide, 2-[1-(4-chlorobenzoyl)-5-methoxy-2-methyl-1H-indol-3-yl]-N-phenethylacetamide]
PGD2-EA biosynthesis (COX-2): inhibited
